pEC50, pIC50: −log10 of the molar value. Like-named read-outs stand apart in the source and are kept apart here.
Key:
[1] = test system: NZB/W F1 mice; conditions: prophylactic and therapeutic model; cited from earlier work
[2] = biological target: T1, PI3Kα (Homo sapiens, UniProt P42336); assay: PI3 Kinase HTRF assay, PI3Kα; type: biochemical; conditions: 10 μM PIP2, 10 μM ATP; 'Greater than 10 μM' and 'Greater than 1 μM to 10 μM'; read-out: PI3K α IC50
T1 construct: purchased Millipore Corporation 14-602-K
Procedure, shortened: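 Recombinant PI3K converts 10 μM PIP2 with 10 μM ATP, 1 h at room temperature after 15 min compound preincubation, 2% DMSO. PIP3 detected by competitive HTRF with GRP1 PH domain; IC50 by nonlinear regression over 12 points, 20 μM to 0.1 nM.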

[3] = biological target: PI3Kβ; assay: PI3 Kinase HTRF assay, PI3Kβ; type: biochemical, human; conditions: 10 μM PIP2, 10 μM ATP; 'Greater than 10 μM' and 'Greater than 1 μM to 10 μM'; read-out: PI3K β IC50
Procedure, shortened: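 Recombinant PI3Kβ converting PIP2 (10 μM) to PIP3 with 10 μM ATP; PIP3 detected by competitive HTRF displacement of biotin-PIP3/GST-GRP1 PH domain complex. Emission ratios converted to % inhibition; IC50 by nonlinear regression.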

[4] = test system: Balb/c splenic B cells; assay: B cell activation and proliferation assay (Alamar Blue); type: cell-based; conditions: Mus musculus, 'Less than 100 nM'
Procedure, shortened: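 Balb/c splenic B cells (Ficoll, then MACS purification; 50,000/well) were preincubated 30 min with compound at 0.2% final DMSO. They were then stimulated 72 h at 37 °C with a cocktail of 10 μg/ml LPS, or 5 μg/ml anti-mouse F(ab′)2 plus 2 ng/ml mouse IL4. Alamar Blue was read after 5 h at 560Ex/590Em, giving IC50 or EC50.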

[5] = test system: phospho-AKT in RAJI cells (PI3Kδ); assay: PI3Kδ selective cellular assay: phospho-AKT in anti-human IgM stimulated RAJI cells; type: cell-based; conditions: read-out: IC50 for phospho-AKT, RAJI cell model
Text: A compound's ability in selectively inhibiting PI3Kδ can be assessed using RAJI cells, i.e., B lymphocyte cells derived from lymphoma patients. Briefly, serum-starved RAJI cells are stimulated with anti-human IgM, thereby causing signaling through the B-cell receptors, as described in, for example, He et al., Leukemia Research (2009) 33: 798-802. B-cell receptor signaling is important for the activation, differentiation, and survival of B cells and certain B-cell derived cancers. Reduction of phospho-AKT is indicative of compounds that may inhibit B-cell proliferation and function in certain diseases. By monitoring the reduction of phospho-AKT in stimulated RAJI cells (using for example, phospho-AKT antibodies), a compound's potential efficacy in selectively inhibiting PI3Kδ can be assessed.
Certain compounds provided herein (e.g., Compounds I-21, I-86, I-87, I-91, I-106, and III-13) were tested in RAJI cell model using procedures as described above.

[6] = test system: phospho-AKT in RAW 264.7 cells (PI3Kγ); assay: PI3Kγ selective cellular assay: phospho-AKT in C5a stimulated RAW 264.7 cells; type: cell-based; conditions: Mus musculus
Text: A compound's ability in selectively inhibiting PI3Kγ can be assessed using RAW264.7 macrophages. Briefly, serum-starved PAW264.7 cells are stimulated with a known GPCR agonist C5a. (See, e.g., Camps et al., Nature Medicine (2005) 11(9): 936-943). Cells can be treated with test compounds prior to, simultaneously with, or subsequent to the stimulation by C5a. RAW 264.7 cells respond to the complement component fragment C5a through activation of the C5a receptor, and the C5a receptor activates macrophages and induces cell migration. Test compounds' ability to inhibit C5a-mediated AKT phosphorylation is indicative of selective inhibition of PI3Kγ. Thus, by monitoring the reduction of phospho-AKT in stimulated RAW 264.7 cells (using for example, phospho-AKT antibodies), a compound's potential efficacy in selectively inhibiting PI3Kγ can be assessed.
Certain compounds provided herein (e.g., Compounds I-21, I-86, I-87, I-91, I-106, and III-13) were tested in RAW 264.7 cell model using procedures as described above.

[7] = test system: phospho-AKT in SKOV-3 cells (PI3Kα); assay: PI3Kα selective cellular assay: phospho-AKT in SKOV-3 cells; type: cell-based; conditions: Homo sapiens
Text: (§1) A compound's ability in selectively inhibiting PI3Kα can be assessed using SKOV-3 cells, i.e., human ovarian carcinoma cell line. Briefly, SKOV-3 cells, in which mutant PI3Kα is constitutively active, can be treated with test compounds. Test compounds' ability to inhibit AKT phosphorylation in SKOV-3 cells, therefore, is indicative of selective inhibition of PI3Kα. Thus, by monitoring the reduction of phospho-AKT in SKOV-3 cells (using for example, phospho-AKT antibodies), a compound's potential efficacy in selectively inhibiting PI3Kα can be assessed.
Certain compounds provided herein (e.g., Compounds I-21, I-86, I-87, I-91, and III-13) were tested in SKOV-3 cell model using procedures as described above.

[8] = test system: phospho-AKT in 786-O cells (PI3Kβ); assay: PI3Kβ selective cellular assay: phospho-AKT in 786-O cells; type: cell-based; conditions: Homo sapiens, 786-0, read-out: IC50 for phospho-AKT, 786-O cell model
Text: as §1, with “PI3Kβ” for “PI3Kα”, “786-O” for “SKOV-3”, “kidney” for “ovarian”, “PI3Kβ” for “mutant PI3Kα”, “PI3Kβ.” for “PI3Kα.”
Certain compounds provided herein (e.g., Compounds I-21, I-86, I-87, I-91, and III-13) were tested in 786-O cell model using procedures as described above.

[9] = test system: B6.Sle1z.Sle3z model; conditions: cited from earlier work
[10] = PBS pH 7.4, 37° C., 24 hours; cited from earlier work
[11] = test system: p190 transduced leukemic cells in mice; conditions: about 70 mg/kg twice daily; cited from earlier work
[12] = control compounds, 5 μM; cited from earlier work
[13] = RAW264.7, read-out: IC50 for phospho-AKT, RAW 264.7 cell model
[14] = SK-OV-3, read-out: IC50 for phospho-AKT, SKOV-3 cell model

Chain of PI3Kβ (Q8BTI9 whole entry, the tested form may be a part): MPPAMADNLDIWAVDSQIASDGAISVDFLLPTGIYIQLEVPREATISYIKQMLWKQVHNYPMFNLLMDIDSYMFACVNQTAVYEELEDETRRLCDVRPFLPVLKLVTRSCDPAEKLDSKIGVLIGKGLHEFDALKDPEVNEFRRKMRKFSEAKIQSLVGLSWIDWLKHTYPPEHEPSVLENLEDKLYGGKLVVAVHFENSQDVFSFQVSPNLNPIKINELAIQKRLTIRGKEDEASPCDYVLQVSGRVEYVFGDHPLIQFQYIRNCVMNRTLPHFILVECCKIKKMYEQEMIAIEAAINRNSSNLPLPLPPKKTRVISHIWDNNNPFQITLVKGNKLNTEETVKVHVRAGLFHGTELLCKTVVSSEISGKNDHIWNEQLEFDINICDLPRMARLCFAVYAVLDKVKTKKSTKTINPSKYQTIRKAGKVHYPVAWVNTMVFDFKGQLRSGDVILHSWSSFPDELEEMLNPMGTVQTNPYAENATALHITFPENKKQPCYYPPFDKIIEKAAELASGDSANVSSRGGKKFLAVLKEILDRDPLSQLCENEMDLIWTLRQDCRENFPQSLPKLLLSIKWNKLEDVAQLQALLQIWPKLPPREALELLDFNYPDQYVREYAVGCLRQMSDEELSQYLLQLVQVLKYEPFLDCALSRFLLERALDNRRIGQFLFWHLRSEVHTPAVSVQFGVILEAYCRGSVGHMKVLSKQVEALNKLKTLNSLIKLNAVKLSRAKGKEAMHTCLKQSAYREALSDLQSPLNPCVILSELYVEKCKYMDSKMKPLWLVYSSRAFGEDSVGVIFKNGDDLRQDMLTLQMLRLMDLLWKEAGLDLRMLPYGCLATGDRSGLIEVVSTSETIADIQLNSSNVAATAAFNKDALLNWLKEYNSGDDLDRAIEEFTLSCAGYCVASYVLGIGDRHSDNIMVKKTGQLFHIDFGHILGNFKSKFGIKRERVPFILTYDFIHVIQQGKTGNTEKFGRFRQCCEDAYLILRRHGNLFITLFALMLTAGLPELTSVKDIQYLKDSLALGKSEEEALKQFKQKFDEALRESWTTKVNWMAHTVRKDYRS
T1 sequence (P42336 whole entry): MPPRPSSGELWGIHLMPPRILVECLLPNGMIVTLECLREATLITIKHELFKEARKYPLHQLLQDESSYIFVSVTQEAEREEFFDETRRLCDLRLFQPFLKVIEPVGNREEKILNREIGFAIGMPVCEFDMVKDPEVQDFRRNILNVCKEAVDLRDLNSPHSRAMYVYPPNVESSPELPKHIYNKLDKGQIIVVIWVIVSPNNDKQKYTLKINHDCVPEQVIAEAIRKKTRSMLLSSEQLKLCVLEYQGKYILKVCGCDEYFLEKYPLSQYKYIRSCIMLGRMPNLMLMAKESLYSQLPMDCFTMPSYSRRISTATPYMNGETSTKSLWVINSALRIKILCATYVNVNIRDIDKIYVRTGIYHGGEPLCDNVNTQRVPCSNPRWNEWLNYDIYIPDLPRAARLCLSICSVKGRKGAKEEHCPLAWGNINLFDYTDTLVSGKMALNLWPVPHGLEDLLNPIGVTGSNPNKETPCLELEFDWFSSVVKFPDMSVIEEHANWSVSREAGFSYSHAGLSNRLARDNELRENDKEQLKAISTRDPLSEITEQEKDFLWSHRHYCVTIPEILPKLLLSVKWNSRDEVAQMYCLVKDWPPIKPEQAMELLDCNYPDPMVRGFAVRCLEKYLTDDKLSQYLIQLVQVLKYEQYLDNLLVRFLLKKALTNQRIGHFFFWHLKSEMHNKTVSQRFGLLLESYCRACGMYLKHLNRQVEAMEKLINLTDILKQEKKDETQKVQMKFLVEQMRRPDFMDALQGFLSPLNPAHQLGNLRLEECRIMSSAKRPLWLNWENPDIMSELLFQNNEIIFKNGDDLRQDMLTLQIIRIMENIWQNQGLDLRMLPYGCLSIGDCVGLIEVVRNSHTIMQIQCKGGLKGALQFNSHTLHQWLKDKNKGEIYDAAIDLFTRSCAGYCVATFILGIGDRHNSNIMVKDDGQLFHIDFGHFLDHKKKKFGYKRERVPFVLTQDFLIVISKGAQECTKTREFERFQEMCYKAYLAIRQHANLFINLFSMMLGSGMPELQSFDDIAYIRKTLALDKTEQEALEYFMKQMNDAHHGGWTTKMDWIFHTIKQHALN
T1 sequence (P27986 whole entry partner): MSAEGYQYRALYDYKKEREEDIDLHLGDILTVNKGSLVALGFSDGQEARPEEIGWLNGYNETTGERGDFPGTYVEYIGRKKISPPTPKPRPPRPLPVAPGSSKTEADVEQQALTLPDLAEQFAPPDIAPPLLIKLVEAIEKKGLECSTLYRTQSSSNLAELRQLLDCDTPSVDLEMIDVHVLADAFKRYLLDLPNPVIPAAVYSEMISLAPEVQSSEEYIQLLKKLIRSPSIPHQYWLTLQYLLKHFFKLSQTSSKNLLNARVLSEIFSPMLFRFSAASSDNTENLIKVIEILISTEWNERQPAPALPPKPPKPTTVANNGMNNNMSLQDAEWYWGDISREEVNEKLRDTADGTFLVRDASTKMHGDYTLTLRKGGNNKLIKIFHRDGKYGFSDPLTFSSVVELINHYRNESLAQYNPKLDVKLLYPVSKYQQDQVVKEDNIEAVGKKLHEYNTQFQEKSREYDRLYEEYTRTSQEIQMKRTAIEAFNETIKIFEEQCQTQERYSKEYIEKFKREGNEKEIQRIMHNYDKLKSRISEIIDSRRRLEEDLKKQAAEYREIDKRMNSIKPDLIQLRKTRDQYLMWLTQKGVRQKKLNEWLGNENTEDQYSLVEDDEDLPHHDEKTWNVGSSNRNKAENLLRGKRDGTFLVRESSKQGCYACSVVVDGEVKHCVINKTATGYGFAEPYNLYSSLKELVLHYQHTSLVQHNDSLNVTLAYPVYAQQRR

| pIC50 [2] | pIC50 [3] | pIC50 [5] | pIC50 [6, 13] | pIC50 [7, 14] | pIC50 [8] | SMILES | pEC50 [4] | also measured |
| --- | --- | --- | --- | --- | --- | --- | --- | --- |
|  |  |  |  |  |  | CC(C)C[C@H](NC(=O)[C@H](Cc1ccccc1)NC(=O)c1cnccn1)B(O)O [Bortezimib, bortezomib] |  | disease in the NZB/W model [1]: effective at blocking disease in the NZB/W model |
| 5.00 to 6.00 | < 5.00 | > 7.00 | > 7.00 | 5.00 to 6.00 | 5.00 to 6.00 | COc1ncc(-c2cccc3nc([C@H](C)Nc4nc(N)nc5cccnc45)n(-c4ccccc4)c(=O)c23)cn1 [Compound I-86] | > 7.00 |  |
| 5.00 to 6.00 | < 5.00 | > 7.00 | > 7.00 |  | 5.00 to 6.00 | C[C@H](Nc1nc(N)nc2cccnc12)c1nc2cccc(-c3cnn(C)c3)c2c(=O)n1-c1ccccc1 [Compound I-87] | > 7.00 | pIC50 ([7]; SK-OV-3, range with units in value, read-out: IC50 for phospho-AKT, SKOV-3 cell model): 6.00 to 7.00 |
| 5.00 to 6.00 | < 5.00 | > 7.00 | > 7.00 | 5.00 to 6.00 | 5.00 to 6.00 | Cc1ncc(-c2cccc3nc([C@H](C)Nc4nc(N)nc5cccnc45)n(-c4ccccc4)c(=O)c23)cn1 [Compound I-91, (S)-2-(1-((2-aminopyrido[3,2-d]pyrimidin-4-yl)amino)ethyl)-5-(2-methylpyrimidin-5-yl)-3-phenylquinazolin-4(3H)-one] | > 7.00 |  |
| 5.00 to 6.00 | 5.00 to 6.00 | > 7.00 |  | 5.00 to 6.00 | 5.00 to 6.00 | C[C@H](Nc1ncnc2[nH]cnc12)c1cc2cccc(C(F)(F)F)c2c(=O)n1-c1cccc(F)c1 [III-13] | > 7.00 | pIC50 ([6]; RAW264.7, range with units in value, read-out: IC50 for phospho-AKT, RAW 264.7 cell model): 6.00 to 7.00 |
|  |  |  |  |  |  | CO[C@H]1C[C@@H]2CC[C@@H](C)[C@@](O)(O2)C(=O)C(=O)N2CCCC[C@H]2C(=O)O[C@H]([C@H](C)C[C@@H]2CC[C@@H](OCCO)[C@H](OC)C2)CC(=O)[C@H](C)/C=C(\C)[C@@H](O)[C@@H](OC)C(=O)[C@H](C)C[C@H](C)/C=C/C=C/C=C/1C [RAD001, everolimus] |  | lupus symptoms [9]: ameliorate lupus symptoms |
|  |  |  |  |  |  | O=C(O)CCCc1ccc(N(CCCl)CCCl)cc1 [chlorambucil] |  | chemical stability [10]: largely hydrolyzed over the course of 24 hours |
|  |  |  |  |  |  | Cc1ccc(NC(=O)c2ccc(CN3CCN(C)CC3)cc2)cc1Nc1nccc(-c2cccnc2)n1 [imatinib] |  | leukemogenesis [11]: delay but not cure leukemogenesis |
|  |  |  |  |  |  | CC(C)[N+](C)(CCOC(=O)C1c2ccccc2Oc2ccccc21)C(C)C [propantheline] |  | plasma stability [12]: intermediate plasma stability |
|  |  |  |  |  |  | CCCOc1cc(N)ccc1C(=O)OCCN(CC)CC [propoxycaine] |  | plasma stability [12]: low plasma stability |

Source: patent US8969363B2, “Heterocyclic compounds and uses thereof” (Infinity Pharmaceuticals, Inc., priority 2011, dated 2015)
